Results reported in US20220268782A1, “METHODS FOR PREDICTING AND TREATING CARDIAC DYSFUNCTION” (INSERM (INSTITUT NATIONAL DE LA SANTÉ EAT DE LA RECHERCHE …, priority 2019, published 2022).

What was measured:
C2C12 myoblasts = test: PA-induced senescence in C2C12 myoblasts (immunoblot of senescence markers, EdU incorporation); format: cell-based; details: C2C12 cells
Method: Cells were washed briefly with ice-cold 1×PBS, scraped in 400 μL T-PER lysis buffer (ThermoFisher) supplemented with 0.1 mM phenylmethylsulphonyl fluoride (PMSF) and protease/phosphatase inhibitor cocktail tablet (ThermoFisher). Pulverised tissue samples (20-30 mg) were lysed in the same buffer accelerated by sonication and passing through a 21 G needle. To pellet any debris, lysates were centrifuged at 10,000 g for 10 minutes at 4° C., with the supernatant transferred to fresh tubes. Protein concentrations were determined with Bradford assay (Biorad) and lysates were diluted to equal concentration with lysis buffer. Protein lysates were then mixed with Laemmli buffer, vortexed and heated to 95° C. for 5 min. Equal amounts of protein lysates in parallel with protein molecular weight marker (ThermoFisher) were loaded onto pre-cast polyacrylamide gels (Nupage 10 or 12% Bis Tris gel, Novex, Invitrogen) and separated by electrophoresis at 200V for 1 hour. Proteins were transferred onto polyvinylidene difluoride (PVDF) membrane (Invitrogen) using an electrophoretic transfer cell (Mini Trans-Blot, Bio-Rad) in ice-cold transfer buffer (48 mM Tris base, […], 0.1% SDS, 20% methanol (v/v)) at 300 mA for 2 hours. Membranes were blocked in 1× skimmed milk (ThermoFisher) for 1 hour at room temperature, followed by overnight incubation with primary antibody diluted in blocking buffer at 4° C. Next day membranes were washed, followed by 60 minutes incubation in the corresponding horseradish peroxidase (HRP)-conjugated secondary antibody diluted 1:2000-10000 in blocking buffer (all Abcam). Blots were developed using enhanced chemiluminescence (ECL) reagents (normal, Prime & Select) and digital images were acquired using an imaging system (Azure Biosystems). Membranes were usually stripped of antibodies and reprobed with an antibody targeting a protein serving as loading control (α-actinin for hearts & β-actin for all others). For this procedure, membranes were placed in Guanidine-HCl-based stripping solution (6M Guanidine-HCl, 0.2% Nonidet P-40, 0.1M β-mercaptoethanol, 20 mM Tris-HCl, pH 7.5 and 100 mM 2-mercaptoethanol) and incubated for 10 minutes at room temperature with gentle agitation, followed by extensive washing and re-blocking.^5
C2C12 (ATCC® CRL-1772™) myoblasts maintained in DMEM supplemented with L-glutamine (2 mM), penicillin/streptomycin (1%) and 5% fetal bovine serum (FBS) were seeded either at a density of 5×10^4 cells (<50%) per well in 24-well plates or 10^4 cells in 4-well chamber slides. Cells were with L-phenylalanine (1-10 mM)+BH4 (10 μM) and incubation with increasing concentrations of N-acetylcysteine (0.5, 2.5, 5 mM) vs. vehicle overnight as indicated. Cells were analysed for oxidative stress with MitoSOX™ (mitochondrial superoxide; 5 μM, ThermoFisher Scientific), CellROX™ (cytosolic superoxide; 5 μM, ThermoFisher Scientific), gene or protein expression, or various metabolites (see below).

[1] = tested on: primary adult rat cardiomyocytes; test: Immunoblot of p21 in primary adult rat cardiomyocytes; format: cell-based; details: FIG. 1g
Method: Male Spargue Dawley rats (9 weeks, 300-350 g) were anesthetised with ketamine and xylazine (100 and 10 mg/kg, respectively) with heparin added (100 UI/kg). Hearts were excised and retrogradely perfused with an oxygenated ([…]) perfusion buffer consisting of NaCl 113 mM, KCl 4.7 mM, KH2PO4 0.6 mM, Na2HPO4 0.6 mM, MgSO4-7H2O 1.2 mM, NaHCO3 12 mM, KHCO3 10 mM, HEPES 10 mM, Taurine 30 mM, phenol red 0.032 mM, D-glucose 5.5 mM, 2,3-butanedionemonoxime 10 mM, pH 7.4) for 2 minutes to wash out the blood from the coronary arteries. Then hearts were perfused with a digestion buffer (perfusion buffer supplemented with 0.1 mg/mL liberase, 0.14 mg/mL trypsine-EDTA and 12.5 μM Ca^2+) for 10-12 minutes. Hearts were then placed in a stopping buffer (perfusion buffer supplemented with 10% NBCS and 12.5 μM Ca^2+). Atria and right ventricles were removed. Left ventricles were dissected into small fragments, then subjected to successive aspirations-reflux. Digested ventricles were filtered through a 250 μm cell strainer. […]
Cells were washed briefly with ice-cold 1×PBS, scraped in 400 μL T-PER lysis buffer (ThermoFisher) supplemented with 0.1 mM phenylmethylsulphonyl fluoride (PMSF) and protease/phosphatase inhibitor cocktail tablet (ThermoFisher). […] Protein concentrations were determined with Bradford assay (Biorad) and lysates were diluted to equal concentration with lysis buffer. […]

Row | Compound | PA-dependent senescence (p21 protein, EdU incorporation) (C2C12 myoblasts; PA 5 mM + BH4 10 μM, FIG. 1c-d) | PA-induced p21 protein ([1]; PA 5 mM + BH4 10 μM) | other markers of senescence (Cdkn2a=p16 and phospho-p53=p-p53) (C2C12 myoblasts; PA 5 mM vs. vehicle, FIG. 1a) | cyclin-dependent kinase 1a (Cdkn1a=p21) protein (C2C12 myoblasts; PA 5 mM vs. vehicle, FIG. 1a-b) | EdU incorporation (C2C12 myoblasts; PA treatment, FIG. 1d) | p21 protein ([1]; PA 5 mM, 4-hour incubation)
1 | CC(O)C(O)C1CNc2nc(N)[nH]c(=O)c2N1 (stereo not drawn) [BH4, 2-amino-6-(1,2-dihydroxypropyl)-5,6,7,8-tetrahydro-3H-pteridin-4-one] | antagonised | rescue |  |  |  | 
2 | N[C@@H](Cc1ccccc1)C(=O)O [PA, (S)-2-Amino-3-phenylpropanoic acid] |  |  | remained unaltered | selectively induced | suppressed | selective induction
